Results on 85 compounds are retold here after ChEMBL document CHEMBL1157539, “Thousands of chemical starting points for antimalarial lead identification” (Nature, 2010).

The subject of the experiment is Plasmodium falciparum. The experiment can be described thus: GSK_TCMDC: Inhibition of Plasmodium falciparum 3D7 in whole erythrocytes, using parasite LDH activity as an index of growth. The settings on record: Plasmodium falciparum, 3D7. It counts as functional, organism-based.
`CN(Cc1ccc(-c2ccc(C(F)(F)F)cc2)cc1)C(=O)Cn1c(CCc2cccc(F)c2F)cc(=O)c2ccc(OCC3CCCN3C)cc21` (stereo not given) gave an XC50 of 1070 nM. As to `CC(C)(C)NCCN(Cc1ccc(-c2ccc(C(F)(F)F)cc2)cc1)C(=O)Cn1c(CCc2cccc(F)c2F)nc(=O)c2c1CCC2`, the XC50 came out at 948 nM. `CCN(CC)CCN(Cc1ccc(-c2ccc(C(F)(F)F)cc2)cc1)C(=O)Cn1c(CCc2cccc(F)c2F)nc(=O)c2cc(C)ccc21` had an XC50 of 936 nM. In the case of `Cc1ccc2c(=O)cc(CCc3cccc(F)c3F)n(CC(=O)N(Cc3ccc(-c4ccc(C(F)(F)F)cc4)cc3)C3CCN(C)CC3)c2n1` it was 1260 nM; in that of `COc1ccc(C2N=C(N)N=C(N)N2OCc2ccccc2)cc1OC` (stereo not given), 133 nM. In the case of `O=C(Nc1ccc2c(c1)CCC2)c1cnc(N2CCN(c3ccncc3)CC2)c(Cl)c1` it was 1110 nM; in that of `NC1CCCN(Cc2ccc(-c3ccc(-c4nc5ccccc5[nH]4)s3)cc2)C1` (stereo not given), 672 nM; in that of `COc1ccc2nccc(N(C)CC3(O)CCC(NCc4cc5c(cn4)OCCO5)CC3)c2n1` (stereo not given), 675 nM. Compound `CN1CCN(CCCN(Cc2csc(-c3ccc(CNCc4ccccc4)cc3)n2)C(=O)c2cc(F)cc(F)c2)CC1` gave an XC50 of 708 nM. Next, `CCCNCc1c(O)ccc2c(CNCCC)c(O)ccc12`: 597 nM; `CCn1c(-c2nonc2N)nc2c(-c3ccccc3)ncc(OCCCNCCCN3CCOCC3)c21`: 669 nM. Next, `CCOc1c(OC)ccc2c1CCN(CCN1CCC(CNC(=O)c3ccc(-c4ccc(C(F)(F)F)cc4)cc3)CC1)C2`: 849 nM.

Consider `CC(C)C[C@H](Nc1ccc(C#N)c2ccccc12)C(=O)N[C@@H]1CCCc2ccccc21`, for which the XC50 is 763 nM. Take `CN(CCNCc1ccc(-c2cccc(-c3nc4ccccc4[nH]3)c2)cc1)S(C)(=O)=O`: the XC50 was determined as 945 nM. Next, `c1ccc2c(NCCCCCCCCNc3ccnc4ccccc34)ccnc2c1`: 155 nM. Next, `CCN(CC)CCN(Cc1ccc(-c2ccc(C(F)(F)F)cc2)cc1)C(=O)CN1C(CCc2cccc(F)c2F)=NS(=O)(=O)c2ccccc21`: 237 nM; `COC(=O)c1c(C#N)c(OC)cc(O)c1CSC[C@@H](CN1CCCCC1)Nc1nc(-c2ccc([N+](=O)[O-])cc2)cs1`: 1270 nM; `CS(=O)(=O)c1ccc(CNCc2ccc(-c3ccc(-c4nc5cc(C(F)(F)F)ccc5[nH]4)s3)cc2)cc1`: 156 nM. In the case of `CCCNCc1ccc(-c2ccc(CN(CCOC)C(=O)c3ccco3)cc2)nc1` it was 997 nM; in that of `Fc1ccc(Nc2ccnc3cc(-c4cccc(CN5CCCCC5)c4)ccc23)c(Cl)c1`, 31.8 nM. As for `N=c1c2c(n(Cc3ccccc3)c3c1CCC3)CCCC2`, the XC50 is 867 nM.

In turn, `Cc1cccc(Nc2nccc(NCC(O)c3cccc(C(F)(F)F)c3)n2)c1` (stereo not given) registered an XC50 of 514 nM.

As for `Cc1nc(C)c(-c2ccc(Oc3ccc([S+](C)[O-])cc3)cc2)c(O)c1Br` (stereo not given), the XC50 was 765 nM. For `COc1ccc2nc3cc(Cl)ccc3c(NCCCCN3CCNCC3)c2c1`, the XC50 was 183 nM.

For `O=C(Nc1cccc(-c2ccc(-c3nc4cc(C(F)(F)F)ccc4[nH]3)cc2)c1)Nc1ccc(F)c(F)c1F`, the XC50 was 259 nM. As for `O=C(Cc1c[nH]cn1)Nc1ccc(-c2ccc(-c3nc4cc(F)ccc4[nH]3)cc2)cc1`, the XC50 was 731 nM. Next, `Cc1cc(C)c(NC(=O)N2CCCN(CCCCCNC(=O)/C=C/c3ccc(Cl)c(Cl)c3)CC2)c(C)c1`: 968 nM; `N#Cc1ccc(CN2CCC(Oc3ccc(NC(=O)c4cccs4)cc3Cl)C2)cc1` (stereo not given): 402 nM. On to `Cc1cc(=NN=Cc2cccc(Cl)c2)c2ccc(F)cc2[nH]1`, for which the XC50 came out at 240 nM. In the case of `COc1ccc(CN2CCN(CCCCNC(=O)c3ccc(NC(=O)c4ccc(Cl)cc4)cc3)CC2)c(OC)c1` it was 890 nM. With `CNC(=O)Cc1ccc(C(=O)Nc2cccc(-c3ccc(-c4nc5cccc(C)c5[nH]4)s3)c2)cc1`, the XC50 is 632 nM. In the case of `N=c1n(Cc2ccc(Cl)cc2)c2ccccc2n1CC(O)c1ccc(Cl)c(Cl)c1` (stereo not given) it was 677 nM; in that of `CCCOc1ccc(CCNCCCCNCCc2ccc(OCCC)c3ccccc23)c2ccccc12`, 917 nM; in that of `Cc1cc(Nc2nc(Nc3cccc(Cl)c3)nc3ccccc23)n[nH]1`, 287 nM.

In the case of `COc1ccc(Cc2c(Cl)nc3nc(N)nc(N)c3c2C)cc1`, the XC50 was determined as 1090 nM. `N#Cc1cccc(Nc2nccc(Nc3ccc(Oc4ccccc4)cc3)n2)c1`: the XC50 was found to be 830 nM. For the compound `Cc1c(Oc2ccc(-n3ccnc3)cc2)ncnc1N1CCC2(CC1)CNCc1ccccc12`, the XC50 worked out at 887 nM. Next, `Cc1c(CNCCN2CCCCC2)c(C(=O)O)c(C)n1Cc1ccc(Cl)cc1`: 416 nM; `CCCNC(=O)CN1CN(c2ccccc2)C2(CCN(C(=O)c3ccc(C(C)(C)C)cc3)CC2)C1=O`: 466 nM.

The compound `Cc1cc(Nc2ccncc2)n2nc(C)c(-c3ccccc3Cl)c2n1` yielded an XC50 of 654 nM. As for `Cc1cc(N2CCCC2)nc(Nc2ccc(NC(=O)c3cccc(F)c3)cc2)n1`, the XC50 is 182 nM.

`CCCCCNc1nc2nc(N)nc(N)c2nc1-c1ccccc1` returned an XC50 of 954 nM.

`Cc1ccc(Nc2nccc(Nc3ccc4c(C)n[nH]c4c3)n2)cc1F`: the XC50 amounted to 785 nM. In the case of `O=C(Nc1ccc(CCN2CCC(c3nc(COCC(F)(F)F)c(-c4ccccc4)o3)CC2)cc1)c1ccc(F)cc1` it was 1970 nM.

Take `COc1ccc2nccc([C@@H](O)CN3CCC(NCc4nc5c(OCc6ccccc6)cccc5[nH]4)CC3)c2c1`: the XC50 is 178 nM. In the case of `Cc1cc2ncn(-c3nccc(NCc4cccnc4)n3)c2cc1C` it was 664 nM; in that of `Cc1ccc(N2C(N)=NC(N)=NC2(C)C)cc1Cl`, 6.82 nM. Compound `Oc1ccc(CCCNc2nc(NCc3ccccc3-c3ccccc3)nc(N3CCNCC3)n2)cc1` showed an XC50 of 713 nM.

In turn, `Cc1[nH]n(-c2cccc(C(F)(F)F)c2)c(=O)c1-c1ccc(Cl)cc1` showed an XC50 of 856 nM.

`CC1(C)N=C(N)N=C(N)N1OCCCOc1cccc(C(=O)O)c1` showed an XC50 of 39.9 nM. For `Cc1[nH]c(C)c(Cc2ccc(Oc3ccc(OC(F)(F)F)cc3)cc2)c(=O)c1Br`, the XC50 worked out at 686 nM. `COc1c(Br)cc(Br)cc1-c1ccc(CN2C3CCCC2CCC3)[nH]1` returned an XC50 of 1110 nM. Compound `CC(C)(C)c1ccc(-c2csc(NC(=O)CC(c3ccccc3)c3ccccc3)n2)cc1` came in with an XC50 of 1150 nM. Next, `Oc1cccc(-c2cnc3ccc(NCc4ccc(F)cc4)nn23)c1`: 1080 nM; `O=C(NCCN1CCC(NC(=O)c2ccc(-c3ccccn3)s2)CC1)c1cccc(C(F)(F)F)c1`: 861 nM; `Oc1ccc(CCNCCCCCCNCCc2ccc(Cl)c(Cl)c2)cc1O`: 726 nM. Compound `Cc1cccc2nc(-c3ccc(-c4cccc(NC(=O)NCc5ccc(F)cc5)c4)cc3)[nH]c12` registered an XC50 of 146 nM. In the case of `CN1CCN(CC(=O)Nc2ccc(-c3ccc(-c4nc5cc(C(F)(F)F)ccc5[nH]4)cc3)cc2)CC1` it was 420 nM; in that of `CCc1c[nH]c2c(N3CCCS3(=O)=O)cc(C(=O)N[C@@H](Cc3ccccc3)[C@H](O)CNC3CCCCC3)cc12`, 774 nM. `COc1ccc(Cn2cncc2CN(CCC(C)C)C(=O)c2ccc(Cl)nc2Cl)cc1` had an XC50 of 1040 nM.

As to `O=C(NCCN1CCCC1)c1ccc(-c2ccc(-c3nc4ccccc4[nH]3)s2)cc1`, the XC50 came to 938 nM. In the case of `Cc1cc(OCC2CCN(c3ncc(C(=O)NC4CC4)cc3Cl)CC2)ccc1F` it was 789 nM; in that of `CN1Cc2cc(NC(=O)/C=C/c3ccccc3Cl)ccc2C(C)(C)C1`, 641 nM. `CN1CCN(c2ccc(Nc3ccnc4ccc(-c5ccccc5)cc34)cc2)CC1` came in with an XC50 of 92.9 nM. For `N#Cc1ccnc(-c2ccc(CNC3CCN(CC4Cn5c(=O)ccc6ccc(F)c4c65)CC3)cc2)c1` (stereo not given), the XC50 was 1220 nM. Next, `O=C(Cc1ccc[n+]([O-])c1)Nc1cccc(-c2cccc(-c3nc4cc(F)ccc4[nH]3)c2)c1`: 897 nM; `Cc1cccc(-n2nc(C)c3c2NC(=O)CC3C(=O)c2ccc(Cl)s2)c1` (stereo not given): 466 nM; `CNS(=O)(=O)Cc1ccc(Nc2nccc(Nc3cccc4c3cnn4C(=O)Nc3ccccc3)n2)cc1`: 959 nM. In the case of `COc1cc(NC(=O)c2nn(CCCN3CCC(N4CCCC4)CC3)cc2-c2ccc(Cl)c(Cl)c2)cc(OC)c1OC` it was 555 nM; in that of `COc1ccccc1CNC(=O)c1cc(C2CC2)nc2c1cnn2C(C)C`, 1020 nM.

In turn, `c1cc(CNCc2ccc3c(c2)OCO3)cc(-c2cccc(CNc3ccc4ncccc4c3)c2)c1` returned an XC50 of 760 nM. `Cc1cccc(C(=O)Nc2ccnc(N3CCCN(Cc4cccc(O)c4)CC3)c2)c1`: the XC50 turned out to be 1210 nM.

As for `CC1(C)NC(N)=NC(=N)N1OCCOc1ccc(Cc2ccccc2)cc1`, the XC50 amounted to 44 nM. In the case of `CN(C)C(=O)CC(=O)NCc1c(Cl)cccc1Cl` it was 203 nM; in that of `Nc1nc(N)c2c(Oc3cccnc3)cccc2n1`, 886 nM. The compound `O=C(Cc1cc(=O)oc2cc(O)ccc12)NC1CCC(CN2CCC(c3c[nH]c4ccccc34)CC2)CC1` (stereo not given) displayed an XC50 of 1130 nM. Next, `CO/C(=C\C=C\c1cc2cc(Cl)c(Cl)cc2[nH]1)C(=O)NC1CCN(CCNc2ccccc2)CC1`: 258 nM.

`C=CCNC(=O)C(C)c1ccc2cc(OC)ccc2c1` (stereo not given) registered an XC50 of 420 nM.

`CCN(CC)S(=O)(=O)c1ccc(Cl)c(C(=O)Nc2ccc3nc(C)sc3c2)c1` registered an XC50 of 798 nM. In the case of `NCc1ccc(CNCc2cccc(-c3cccc(-c4nc5cc(F)ccc5[nH]4)c3)c2)cc1` it was 308 nM; in that of `O=C(/C=C/c1cc(C(F)(F)F)ccc1F)N1CCC(CN2CCC(c3c[nH]c4ccccc34)CC2)CC1`, 994 nM; in that of `CCc1c(C)nc(-n2nc(C)cc2NC(=O)c2cccc3ccccc23)[nH]c1=O`, 682 nM.

Turning to `O=C(Nc1cccc(CN2CCCN(Cc3cccc(O)c3)CC2)c1)c1cc2ccccc2s1`, the XC50 turned out to be 365 nM. Next, `Cc1cc(-c2cc(-c3ccc(OCCN(C)C)cc3)[nH]c2-c2ccc3c(c2)CCC3=NO)ccn1`: 867 nM. Take `CC(C)CNCc1cccc(-c2cccc(CN(C(=O)NC3CCCCC3)C3CCN(Cc4ccccc4)CC3)c2)c1`: the XC50 turned out to be 821 nM.
